Measured values from paper PMC6990405, “Synthesis and Structure–Activity relationship of 1-(5-isoquinolinesulfonyl)piperazine analogues as inhibitors of Mycobacterium tuberculosis IMPDH” (European Journal of Medicinal Chemistry, 2019).
In brackets after ≈: the same amount, converted by molar mass.

Legend:
[1] = test system: M. tuberculosis SRMV2.6 (IMPDH Tyr487Cys); format: cell-based, Mycobacterium tuberculosis
[2] = test system: M. tuberculosis guaB2 cKD mutant; format: cell-based; details: increase in potency against guaB2 cKD mutant upon guaB2 silencing

| SMILES | MIC90 against SRMV2.6 [1] [µM] | Hyper-sensitivity to guaB2 cKD [2] |
| --- | --- | --- |
| O=C(C1CCCCC1)N1CCN(S(=O)(=O)c2cccc3cnccc23)CC1 [Compound 1, Cyclohexyl[4-(isoquinoline-5-sulfonyl)piperazin-1-yl]methanone] | 250 (≈ 96.9 µg/mL) | ∼32-fold |
| O=C(CC1CCCCC1)N1CCN(S(=O)(=O)c2cccc3cnccc23)CC1 [Compound 22, 2-Cyclohexyl-1-(4-(isoquinolin-5-ylsulfonyl)piperazin-1-yl)ethan-1-one] | >250 | 16-fold |
| O=C(Nc1ccc2c(c1)OCO2)N1CCCN(S(=O)(=O)c2cccc3cnccc23)CC1 [Compound 44, 4-(isoquinoline-5-sulfonyl)-N-(2H-1,3-benzodioxol-5-yl)-1,4-diazepane-1-carboxamide] | >100 | 8–16-fold |
| CC1CN(S(=O)(=O)c2cccc3cnccc23)CCN1C(=O)Nc1ccc2c(c1)OCO2 (stereo not drawn) [Compound 45, N-(benzo[d][1,3]dioxol-5-yl)-4-(isoquinolin-5-ylsulfonyl)-2-methylpiperazine-1-carboxamide] | >100 | 8–16-fold |
| O=C(NCc1ccccc1)N1CCN(S(=O)(=O)c2cccc3cnccc23)CC1 [Compound 46, N-benzyl-4-(isoquinolin-5-ylsulfonyl)piperazine-1-carboxamide] | >100 | 8-fold |
| O=C(c1cccc([N+](=O)[O-])c1)N1CCN(S(=O)(=O)c2cccc3cnccc23)CC1 [Compound 18, [4-(isoquinoline-5-sulfonyl)piperazin-1-yl](3-nitrophenyl)methanone] | 50 (≈ 21.3 µg/mL) | 8-fold |
| CC1CCCCC1C(=O)N1CCN(S(=O)(=O)c2cccc3cnccc23)CC1 (stereo not drawn) [Compound 13, [4-(isoquinoline-5-sulfonyl)piperazin-1-yl](2-methylcyclohexyl)methanone] | >250 | 16–32-fold |
| O=C(C1CCCCCC1)N1CCN(S(=O)(=O)c2cccc3cnccc23)CC1 [Compound 14, Cycloheptyl[4-(isoquinoline-5-sulfonyl)piperazin-1-yl]methanone] | >250 | 16-fold |
| Cc1ccccc1CNC(=O)N1CCN(S(=O)(=O)c2cccc3cnccc23)CC1 [Compound 48, 4-(isoquinolin-5-ylsulfonyl)-N-(2-methylbenzyl)piperazine-1-carboxamide] | 15.6 (≈ 6.62 µg/mL) | 16–32-fold |
